Patent publication US8802895B2, “Amide derivatives of benzene-sulfonanilide, pharmaceutical composition thereof and method for cancer treatment using the same” (Cleveland State University, priority 2010, dated 2014)

Tests used:
CCRF-CEM = assay: NCIDTP 60 cancer cell lines screening, Leukemia panel; type: cell-based
SF-539 = assay: NCIDTP 60 cancer cell lines screening, CNS Cancer panel; type: cell-based
HCT-116 = assay: NCIDTP 60 cancer cell lines screening, Colon Cancer panel; type: cell-based
NCI-H522 = assay: NCIDTP 60 cancer cell lines screening, Non-Small Cell Lung Cancer panel; type: cell-based
RPMI-8226 = assay: NCIDTP 60 cancer cell lines screening, Leukemia panel; type: cell-based
SK-MEL-5 = assay: NCIDTP 60 cancer cell lines screening, Melanoma panel; type: cell-based
OVCAR-5 = assay: NCIDTP 60 cancer cell lines screening, Ovarian Cancer panel; type: cell-based
A498 = assay: NCIDTP 60 cancer cell lines screening, Renal Cancer panel; type: cell-based
UO-31 = assay: as above; type: cell-based
NCI-H322M = assay: NCIDTP 60 cancer cell lines screening, Non-Small Cell Lung Cancer panel; type: cell-based
COLO 205 = assay: NCIDTP 60 cancer cell lines screening, Colon Cancer panel; type: cell-based
HL-60(TB) = assay: NCIDTP 60 cancer cell lines screening, Leukemia panel; type: cell-based
SF-268 = assay: NCIDTP 60 cancer cell lines screening, CNS Cancer panel; type: cell-based
SNB-19 = assay: as above; type: cell-based
NCI/ADR-RES = assay: NCIDTP 60 cancer cell lines screening, Ovarian Cancer panel; type: cell-based
HOP-62 = assay: NCIDTP 60 cancer cell lines screening, Non-Small Cell Lung Cancer panel; type: cell-based
[1] = system: HT29 colon cancer xenograft; assay: In vivo study, HT29 colon cancer xenograft model (FIG. 11); set-up: species or system BALB/c athymic nude mice; details: HT29 xenograft in nude mice, 5 mg/kg/day, i.p., 20 days
Text: HT29 colon cancer xenograft model is a generally accepted in vivo cancer model and the formed tumor grows very aggressively. […] In the experiment, HT29 xenografts were established in ovariectomized 5- to 6-week-old BALB/c athymic nude mice (Case Western Reserve University animal facility). When tumors reach 150-200 mm^3 (i.e., in 2-4 weeks), the animals are randomly allocated (n=3 per group) to be treated with the compounds or vehicle (1% Tween 80) administered via i.p. Tumor growth was assessed and tumor weights were measured at the end of the experiment after the mice were killed. The animal care was in accordance with institutional guidelines.

Cc1ccc(C)c(COc2cc(NC(=O)c3ccc4c(c3)OCO4)ccc2N(C)S(C)(=O)=O)c1 [Compound #10, Benzo[1,3]dioxole-5-carboxylic acid [3-(2,5-dimethyl-benzyloxy)-4-(methanesulfonyl-methyl-amino)-phenyl]-amide]
TGI (CCRF-CEM): >1.00E−4 Molar
GI50 (CCRF-CEM; Homo sapiens): 48.5 nM
CC50 (CCRF-CEM; Homo sapiens, read-out: LC50): > 100000 nM
Percent Growth (CCRF-CEM; Log10 Concentration −4.0 Molar): 16%
Percent Growth (CCRF-CEM; Log10 Concentration −5.0 Molar): 14%
Percent Growth (CCRF-CEM; Log10 Concentration −6.0 Molar): 13%
Percent Growth (CCRF-CEM; Log10 Concentration −7.0 Molar): 31%
Percent Growth (CCRF-CEM; Log10 Concentration −8.0 Molar): 92%
GI50 (SF-539; Homo sapiens, SF-539): 125 nM
CC50 (SF-539; Homo sapiens, SF-539, read-out: LC50): > 100000 nM
Percent Growth (SF-539; SF-539, Log10 Concentration −5.0 Molar): −10%
Percent Growth (SF-539; SF-539, Log10 Concentration −6.0 Molar): −10%
Percent Growth (SF-539; SF-539, Log10 Concentration −7.0 Molar): 56%
Percent Growth (SF-539; SF-539, Log10 Concentration −8.0 Molar): 91%
TGI (HCT-116; HCT-116): 1.02E−6 Molar
Percent Growth (HCT-116; HCT-116, Log10 Concentration −4.0 Molar): −47%
Percent Growth (HCT-116; HCT-116, Log10 Concentration −5.0 Molar): −47%
Percent Growth (HCT-116; HCT-116, Log10 Concentration −7.0 Molar): 45%
Percent Growth (HCT-116; HCT-116, Log10 Concentration −8.0 Molar): 89%
GI50 (HCT-116; Homo sapiens, HCT-116): 75.3 nM
CC50 (HCT-116; Homo sapiens, HCT-116, read-out: LC50): > 100000 nM
GI50 (NCI-H522; Homo sapiens, NCI-H522): 33.5 nM
CC50 (NCI-H522; Homo sapiens, NCI-H522, read-out: LC50): > 100000 nM
TGI (NCI-H522; NCI-H522): 2.40E−7 Molar
Percent Growth (NCI-H522; NCI-H522, Log10 Concentration −4.0 Molar): −36%
Percent Growth (NCI-H522; NCI-H522, Log10 Concentration −5.0 Molar): −42%
Percent Growth (NCI-H522; NCI-H522, Log10 Concentration −6.0 Molar): −37%
Percent Growth (NCI-H522; NCI-H522, Log10 Concentration −7.0 Molar): 23%
Percent Growth (NCI-H522; NCI-H522, Log10 Concentration −8.0 Molar): 80%
GI50 (RPMI-8226; Homo sapiens, RPMI-8226): 290 nM
CC50 (RPMI-8226; Homo sapiens, RPMI-8226, read-out: LC50): > 100000 nM
Percent Growth (RPMI-8226; RPMI-8226, Log10 Concentration −4.0 Molar): 6%
Percent Growth (RPMI-8226; RPMI-8226, Log10 Concentration −5.0 Molar): −2%
Percent Growth (RPMI-8226; RPMI-8226, Log10 Concentration −6.0 Molar): 14%
Percent Growth (RPMI-8226; RPMI-8226, Log10 Concentration −7.0 Molar): 81%
Percent Growth (RPMI-8226; RPMI-8226, Log10 Concentration −8.0 Molar): 93%
GI50 (SK-MEL-5; Homo sapiens, SK-MEL-5): 253 nM
CC50 (SK-MEL-5; Homo sapiens, SK-MEL-5, read-out: LC50): 34100 nM
TGI (SK-MEL-5; SK-MEL-5): 1.65E−6 Molar
Percent Growth (SK-MEL-5; SK-MEL-5, Log10 Concentration −4.0 Molar): −57%
Percent Growth (SK-MEL-5; SK-MEL-5, Log10 Concentration −5.0 Molar): −42%
Percent Growth (SK-MEL-5; SK-MEL-5, Log10 Concentration −6.0 Molar): 12%
Percent Growth (SK-MEL-5; SK-MEL-5, Log10 Concentration −7.0 Molar): 76%
Percent Growth (SK-MEL-5; SK-MEL-5, Log10 Concentration −8.0 Molar): 90%
GI50 (OVCAR-5; Homo sapiens, OVCAR-5): 538 nM
CC50 (OVCAR-5; Homo sapiens, OVCAR-5, read-out: LC50): > 100000 nM
TGI (OVCAR-5; OVCAR-5): >1.00E−4 Molar
Percent Growth (OVCAR-5; OVCAR-5, Log10 Concentration −4.0 Molar): 25%
Percent Growth (OVCAR-5; OVCAR-5, Log10 Concentration −5.0 Molar): 33%
Percent Growth (OVCAR-5; OVCAR-5, Log10 Concentration −6.0 Molar): 37%
Percent Growth (OVCAR-5; OVCAR-5, Log10 Concentration −7.0 Molar): 85%
Percent Growth (OVCAR-5; OVCAR-5, Log10 Concentration −8.0 Molar): 85%
TGI (A498; A498): 8.53E−7 Molar
Percent Growth (A498; A498, Log10 Concentration −4.0 Molar): −5%
Percent Growth (A498; A498, Log10 Concentration −5.0 Molar): −7%
Percent Growth (A498; A498, Log10 Concentration −6.0 Molar): −4%
Percent Growth (A498; A498, Log10 Concentration −7.0 Molar): 55%
Percent Growth (A498; A498, Log10 Concentration −8.0 Molar): 86%
GI50 (A498; Homo sapiens, A498): 122 nM
CC50 (A498; Homo sapiens, A498, read-out: LC50): > 100000 nM
GI50 (UO-31; Homo sapiens, UO-31): 395 nM
CC50 (UO-31; Homo sapiens, UO-31, read-out: LC50): > 100000 nM
TGI (UO-31; UO-31): >1.00E−4 Molar
Percent Growth (UO-31; UO-31, Log10 Concentration −4.0 Molar): 14%
Percent Growth (UO-31; UO-31, Log10 Concentration −5.0 Molar): 12%
Percent Growth (UO-31; UO-31, Log10 Concentration −6.0 Molar): 35%
Percent Growth (UO-31; UO-31, Log10 Concentration −7.0 Molar): 73%
Percent Growth (UO-31; UO-31, Log10 Concentration −8.0 Molar): 78%
TGI (NCI-H322M): >1.00E−4 Molar
GI50 (NCI-H322M; Homo sapiens): 468 nM
CC50 (NCI-H322M; Homo sapiens, read-out: LC50): > 100000 nM
Percent Growth (NCI-H322M; Log10 Concentration −4.0 Molar): 28%
Percent Growth (NCI-H322M; Log10 Concentration −5.0 Molar): 26%
Percent Growth (NCI-H322M; Log10 Concentration −6.0 Molar): 30%
Percent Growth (NCI-H322M; Log10 Concentration −7.0 Molar): 91%
Percent Growth (NCI-H322M; Log10 Concentration −8.0 Molar): 94%
TGI (COLO 205; COLO 205): 1.07E−6 Molar
Percent Growth (COLO 205; COLO 205, Log10 Concentration −4.0 Molar): −33%
Percent Growth (COLO 205; COLO 205, Log10 Concentration −5.0 Molar): −41%
Percent Growth (COLO 205; COLO 205, Log10 Concentration −6.0 Molar): 1%
Percent Growth (COLO 205; COLO 205, Log10 Concentration −7.0 Molar): 99%
Percent Growth (COLO 205; COLO 205, Log10 Concentration −8.0 Molar): 105%
GI50 (COLO 205; Homo sapiens, COLO 205): 318 nM
CC50 (COLO 205; Homo sapiens, COLO 205, read-out: LC50): > 100000 nM
TGI (HL-60(TB); HL-60(TB)): 9.67E−8 Molar
Percent Growth (HL-60(TB); HL-60(TB), Log10 Concentration −4.0 Molar): −20%
Percent Growth (HL-60(TB); HL-60(TB), Log10 Concentration −5.0 Molar): −20%
Percent Growth (HL-60(TB); HL-60(TB), Log10 Concentration −6.0 Molar): −12%
Percent Growth (HL-60(TB); HL-60(TB), Log10 Concentration −7.0 Molar): −1%
Percent Growth (HL-60(TB); HL-60(TB), Log10 Concentration −8.0 Molar): 89%
CC50 (HL-60(TB); Homo sapiens, HL-60, read-out: LC50): > 100000 nM
GI50 (HL-60(TB); Homo sapiens, HL-60(TB)): 26.9 nM
GI50 (SF-268; Homo sapiens, SF-268): 288 nM
CC50 (SF-268; Homo sapiens, SF-268, read-out: LC50): > 100000 nM
TGI (SF-268; SF-268): >1.00E−4 Molar
Percent Growth (SF-268; SF-268, Log10 Concentration −4.0 Molar): 16%
Percent Growth (SF-268; SF-268, Log10 Concentration −5.0 Molar): 9%
Percent Growth (SF-268; SF-268, Log10 Concentration −6.0 Molar): 19%
Percent Growth (SF-268; SF-268, Log10 Concentration −7.0 Molar): 77%
Percent Growth (SF-268; SF-268, Log10 Concentration −8.0 Molar): 93%
GI50 (SNB-19; Homo sapiens, SNB-19): 537 nM
CC50 (SNB-19; Homo sapiens, SNB-19, read-out: LC50): > 100000 nM
TGI (SNB-19; SNB-19): >1.00E−4 Molar
Percent Growth (SNB-19; SNB-19, Log10 Concentration −4.0 Molar): 39%
Percent Growth (SNB-19; SNB-19, Log10 Concentration −5.0 Molar): 30%
Percent Growth (SNB-19; SNB-19, Log10 Concentration −6.0 Molar): 36%
Percent Growth (SNB-19; SNB-19, Log10 Concentration −7.0 Molar): 89%
Percent Growth (SNB-19; SNB-19, Log10 Concentration −8.0 Molar): 93%
TGI (NCI/ADR-RES): 4.07E−7 Molar
GI50 (NCI/ADR-RES; Homo sapiens): 56.2 nM
CC50 (NCI/ADR-RES; Homo sapiens, read-out: LC50): > 100000 nM
Percent Growth (NCI/ADR-RES; Log10 Concentration −4.0 Molar): −20%
Percent Growth (NCI/ADR-RES; Log10 Concentration −5.0 Molar): −12%
Percent Growth (NCI/ADR-RES; Log10 Concentration −6.0 Molar): −22%
Percent Growth (NCI/ADR-RES; Log10 Concentration −7.0 Molar): 34%
Percent Growth (NCI/ADR-RES; Log10 Concentration −8.0 Molar): 98%
TGI (HOP-62; HOP-62): >1.00E−4 Molar
Percent Growth (HOP-62; HOP-62, Log10 Concentration −4.0 Molar): 19%
Percent Growth (HOP-62; HOP-62, Log10 Concentration −5.0 Molar): 18%
Percent Growth (HOP-62; HOP-62, Log10 Concentration −6.0 Molar): 18%
Percent Growth (HOP-62; HOP-62, Log10 Concentration −7.0 Molar): 84%
Percent Growth (HOP-62; HOP-62, Log10 Concentration −8.0 Molar): 102%
GI50 (HOP-62; Homo sapiens, HOP-62): 329 nM
CC50 (HOP-62; Homo sapiens, HOP-62, read-out: LC50): > 100000 nM
tumor growth [1]: significantly inhibited the tumor growth
